# Measured values from ChEMBL document CHEMBL4765432, “Design and synthesis of novel Flavone-based histone deacetylase inhibitors antagonizing activation of STAT3 in breast cancer” (Eur J Med Chem, 2020).
# Calls of active or inactive are those of the source. The rule behind the calls is not given here.
# Columns and labels:
# MDA-MB-231 [1] = assay: Induction of cell cycle arrest in human MDA-MB-231 cells assessed as S phase accumulation at 2 uM incubated for 24 hrs by PI staining based flow cytometry analysis (reference value: 43.82 %); type: functional
# [2] = Genotoxicity in Salmonella typhimurium TA97a by Ames test; type: toxicity; conditions: salmonella enterica subsp. enterica serovar typhimurium
# T47D = assay: Cytotoxicity against human T47D cells assessed as reduction in cell viability incubated for 48 hrs by MTT assay; type: functional, cell-based
# Histone deacetylase 9 = Histone deacetylase 9 (Homo sapiens, UniProt Q9UKV0); assay: Inhibition of recombinant human N-terminal GST-tagged HDAC-9 (548 to end residues) expressed in baculovirus infected in Sf9 cells at 10 uM using Boc-Lys (q-Ac)-AMC as substrate incubated for 10 mins followed by substrate addition and measured after 30 mins by fluorescence based assay relative to control; conditions: time 40.0 min
# [3] = Genotoxicity in Salmonella typhimurium TA100 by Ames test; type: toxicity; conditions: salmonella enterica subsp. enterica serovar typhimurium
# Histone deacetylase 5 = Histone deacetylase 5 (Homo sapiens, UniProt Q9UQL6); assay: Inhibition of recombinant human N-terminal GST-tagged HDAC-5 (617 to end residues) expressed in baculovirus infected in Sf9 cells using Boc-Lys (q-Ac)-AMC as substrate incubated for 10 mins followed by substrate addition and measured after 30 mins by fluorescence based assay
# MDA-MB-231 [4] = assay: Induction of cell cycle arrest in human MDA-MB-231 cells assessed as G2/M phase accumulation at 2 uM incubated for 24 hrs PI staining based by flow cytometry analysis (reference value: 27.08 %); type: functional
# 4T1 [5] = assay: Induction of cell cycle arrest in mouse 4T1 cells assessed as S phase accumulation at 1 uM incubated for 24 hrs by PI staining based flow cytometry analysis (reference value: 19.43 %); type: functional
# MDA-MB-231 [6] = assay: Induction of apoptosis in human MDA-MB-231 cells assessed as necrotic cells at 5 uM incubated for 72 hrs by annexinV-FITC and PI staining based flow cytometry analysis (reference value: 0.330 %); type: functional
# SUM-159-PT = assay: Cytotoxicity against human SUM159PT cells assessed as reduction in cell viability incubated for 48 hrs by MTT assay; type: functional, cell-based
# PC-3 = assay: Cytotoxicity against human PC-3 cells assessed as reduction in cell viability incubated for 48 hrs by MTT assay; type: functional, cell-based; conditions: PC-3, 48 h
# [7] = Toxicity in C57BL/6 mouse assessed death of organism at 300 mg/kg, ip observed for 24 hrs; type: organism-based; conditions: in vivo
# [8] = Half life in Sprague-Dawley rat at 20 mg/kg, iv measured upto 12 hrs by LC-MS/MS analysis; type: ADME, organism-based; conditions: in vivo
# MDA-MB-231 [9] = assay: Induction of cell cycle arrest in human MDA-MB-231 cells assessed as S phase accumulation at 1 uM incubated for 24 hrs by PI staining based flow cytometry analysis (reference value: 43.82 %); type: functional
# MDA-MB-231 [10] = assay: Induction of apoptosis in human MDA-MB-231 cells assessed as viable cells at 5 uM incubated for 72 hrs by annexinV-FITC and PI staining based flow cytometry analysis (reference value: 90.3 %); type: functional; conditions: read-out: Activity
# MCF7 = assay: Potency index, ratio of IC50 of SAHA to IC50 of compound for cytotoxicity against human MCF7 cells assessed as reduction in cell viability incubated for 48 hrs by MTT assay; type: functional
# MDA-MB-468 = assay: Cytotoxicity against human MDA-MB-468 cells assessed as reduction in cell viability incubated for 48 hrs by MTT assay; type: functional, cell-based; conditions: MDA-MB-468, 48 h
# [11] = biological target: Protein deacetylase HDAC6 (Homo sapiens, UniProt Q9UBN7); assay: Inhibition of recombinant human N-terminal GST-tagged full length HDAC-6 expressed in baculovirus infected in Sf9 cells using Boc-Lys (q-Ac)-AMC as substrate incubated for 10 mins followed by substrate addition and measured after 30 mins by fluorescence based assay
# MDA-MB-231 [12] = assay: Induction of apoptosis in human MDA-MB-231 cells assessed as increase in PARP cleavage incubated for 48 hrs by Western blot analysis; type: functional, cell-based; conditions: dose 0.5-10 µM
# 4T1 [13] = assay: Induction of cell cycle arrest in mouse 4T1 cells assessed as S phase accumulation at 2 uM incubated for 24 hrs by PI staining based flow cytometry analysis (reference value: 19.43 %); type: functional
# 4T1 [14] = assay: Induction of cell cycle arrest in mouse 4T1 cells assessed as G2/M phase accumulation at 2 uM incubated for 24 hrs by PI staining based flow cytometry analysis (reference value: 38.51 %); type: functional
# Histone deacetylase 4 = Histone deacetylase 4 (Homo sapiens, UniProt P56524); assay: Inhibition of recombinant human N-terminal GST-tagged HDAC-4 (612 to end residues) expressed in baculovirus infected in Sf9 cells using Boc-Lys (q-Ac)-AMC as substrate incubated for 10 mins followed by substrate addition and measured after 30 mins by fluorescence based assay
# MDA-MB-231 [15] = assay: Induction of apoptosis in human MDA-MB-231 cells assessed as viable cells at 1 uM incubated for 72 hrs by annexinV-FITC and PI staining based flow cytometry analysis (reference value: 90.3 %); type: functional; conditions: read-out: Activity
# 4T1 [16] = assay: Induction of cell cycle arrest in mouse 4T1 cells assessed as increase in G0/G1 phase accumulation incubated for 24 hrs by flow cytometry analysis; type: functional, cell-based; conditions: dose 1-2 µM
# 4T1 [17] = assay: Induction of apoptosis in mouse 4T1 cells assessed as necrotic cells at 2.5 uM incubated for 72 hrs by annexinV-FITC and PI staining based flow cytometry analysis (reference value: 5.00 %); type: functional
# Histone deacetylase 1 = Histone deacetylase 1 (Homo sapiens, UniProt Q13547); assay: Inhibition of recombinant human C-terminal GST-tagged full length HDAC-1 expressed in baculovirus infected in Sf9 cells using Boc-Lys (q-Ac)-AMC as substrate incubated for 10 mins followed by substrate addition and measured after 30 mins by fluorescence based assay
# MDA-MB-231 [18] = assay: Induction of apoptosis in human MDA-MB-231 cells assessed as necrotic cells at 1 uM incubated for 72 hrs by annexinV-FITC and PI staining based flow cytometry analysis (reference value: 0.330 %); type: functional
# [19] = Genotoxicity in Salmonella typhimurium TA1535 by Ames test; type: toxicity; conditions: salmonella enterica subsp. enterica serovar typhimurium
# [20] = Toxicity in BALB/c mouse xenografted with mouse 4T1 cells assessed as effect on body weight at 50 mg/kg, po administered for 22 days and measured on day 22; type: organism-based; conditions: in vivo, 528 h, time 22 day
# MDA-MB-231 [21] = assay: Induction of apoptosis in human MDA-MB-231 cells assessed as late apoptotic cells at 5 uM incubated for 72 hrs by annexinV-FITC and PI staining based flow cytometry analysis (reference value: 3.79 %); type: functional
# MDA-MB-231 [22] = assay: Antitumor activity against human MDA-MB-231 cells xenografted in BALB/c mouse assessed as tumor growth inhibition at 25 mg/kg, ip administered for 34 days and measured on day 34; type: functional, organism-based; conditions: time 34.0 day
# NCI-H460 = assay: Cytotoxicity against human NCI-H460 cells assessed as reduction in cell viability incubated for 48 hrs by MTT assay; type: functional, cell-based; conditions: NCI-H460, 48 h
# [23] = MRT in Sprague-Dawley rat at 20 mg/kg, po measured upto 12 hrs by LC-MS/MS analysis; type: ADME, organism-based; conditions: in vivo
# [24] = Cmax in Sprague-Dawley rat at 20 mg/kg, iv measured upto 12 hrs by LC-MS/MS analysis; type: ADME, organism-based; set-up: route intravenous, dose 20 mg/kg, time <=12; conditions: in vivo
# Chain of Histone deacetylase 9 (Q9UKV0 whole entry): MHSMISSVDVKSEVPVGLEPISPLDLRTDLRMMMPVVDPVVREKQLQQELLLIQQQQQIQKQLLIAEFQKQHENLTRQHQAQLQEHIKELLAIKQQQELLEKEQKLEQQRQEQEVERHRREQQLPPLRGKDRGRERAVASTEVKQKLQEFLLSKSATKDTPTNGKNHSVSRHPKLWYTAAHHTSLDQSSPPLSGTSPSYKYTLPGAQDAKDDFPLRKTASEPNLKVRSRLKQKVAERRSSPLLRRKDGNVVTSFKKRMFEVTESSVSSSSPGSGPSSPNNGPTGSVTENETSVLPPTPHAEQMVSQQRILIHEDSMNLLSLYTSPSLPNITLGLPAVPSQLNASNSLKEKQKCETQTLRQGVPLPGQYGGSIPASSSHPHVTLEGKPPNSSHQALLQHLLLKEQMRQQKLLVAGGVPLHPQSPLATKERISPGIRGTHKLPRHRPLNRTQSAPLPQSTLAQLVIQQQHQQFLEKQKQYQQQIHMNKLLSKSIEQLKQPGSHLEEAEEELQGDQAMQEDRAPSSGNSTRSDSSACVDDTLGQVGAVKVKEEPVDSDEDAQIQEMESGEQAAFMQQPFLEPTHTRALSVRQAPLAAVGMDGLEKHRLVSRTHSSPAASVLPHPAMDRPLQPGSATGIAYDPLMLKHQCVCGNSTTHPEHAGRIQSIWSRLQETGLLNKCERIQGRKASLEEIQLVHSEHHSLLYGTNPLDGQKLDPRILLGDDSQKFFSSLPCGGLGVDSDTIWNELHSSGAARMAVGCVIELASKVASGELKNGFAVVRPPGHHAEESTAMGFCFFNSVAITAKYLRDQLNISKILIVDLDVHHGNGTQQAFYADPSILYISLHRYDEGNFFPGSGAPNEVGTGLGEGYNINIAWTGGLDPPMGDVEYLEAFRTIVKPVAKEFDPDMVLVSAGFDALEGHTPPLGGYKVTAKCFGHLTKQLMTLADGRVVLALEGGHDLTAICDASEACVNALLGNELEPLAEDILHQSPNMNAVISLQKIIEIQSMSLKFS
# Chain of Histone deacetylase 1 (Q13547 whole entry): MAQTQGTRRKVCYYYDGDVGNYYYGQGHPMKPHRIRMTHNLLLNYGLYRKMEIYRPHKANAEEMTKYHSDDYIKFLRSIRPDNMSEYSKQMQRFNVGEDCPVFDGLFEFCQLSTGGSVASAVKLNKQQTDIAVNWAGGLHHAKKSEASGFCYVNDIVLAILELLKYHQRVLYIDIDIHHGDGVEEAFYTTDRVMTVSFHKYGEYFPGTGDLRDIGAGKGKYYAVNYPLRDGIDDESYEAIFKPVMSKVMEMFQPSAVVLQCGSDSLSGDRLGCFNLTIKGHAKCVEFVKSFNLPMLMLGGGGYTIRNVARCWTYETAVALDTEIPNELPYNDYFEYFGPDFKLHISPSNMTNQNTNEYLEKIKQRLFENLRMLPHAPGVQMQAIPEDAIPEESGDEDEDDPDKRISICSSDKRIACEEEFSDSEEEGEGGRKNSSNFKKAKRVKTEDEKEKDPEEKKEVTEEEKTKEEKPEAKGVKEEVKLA
# Chain of Histone deacetylase 5 (Q9UQL6 whole entry): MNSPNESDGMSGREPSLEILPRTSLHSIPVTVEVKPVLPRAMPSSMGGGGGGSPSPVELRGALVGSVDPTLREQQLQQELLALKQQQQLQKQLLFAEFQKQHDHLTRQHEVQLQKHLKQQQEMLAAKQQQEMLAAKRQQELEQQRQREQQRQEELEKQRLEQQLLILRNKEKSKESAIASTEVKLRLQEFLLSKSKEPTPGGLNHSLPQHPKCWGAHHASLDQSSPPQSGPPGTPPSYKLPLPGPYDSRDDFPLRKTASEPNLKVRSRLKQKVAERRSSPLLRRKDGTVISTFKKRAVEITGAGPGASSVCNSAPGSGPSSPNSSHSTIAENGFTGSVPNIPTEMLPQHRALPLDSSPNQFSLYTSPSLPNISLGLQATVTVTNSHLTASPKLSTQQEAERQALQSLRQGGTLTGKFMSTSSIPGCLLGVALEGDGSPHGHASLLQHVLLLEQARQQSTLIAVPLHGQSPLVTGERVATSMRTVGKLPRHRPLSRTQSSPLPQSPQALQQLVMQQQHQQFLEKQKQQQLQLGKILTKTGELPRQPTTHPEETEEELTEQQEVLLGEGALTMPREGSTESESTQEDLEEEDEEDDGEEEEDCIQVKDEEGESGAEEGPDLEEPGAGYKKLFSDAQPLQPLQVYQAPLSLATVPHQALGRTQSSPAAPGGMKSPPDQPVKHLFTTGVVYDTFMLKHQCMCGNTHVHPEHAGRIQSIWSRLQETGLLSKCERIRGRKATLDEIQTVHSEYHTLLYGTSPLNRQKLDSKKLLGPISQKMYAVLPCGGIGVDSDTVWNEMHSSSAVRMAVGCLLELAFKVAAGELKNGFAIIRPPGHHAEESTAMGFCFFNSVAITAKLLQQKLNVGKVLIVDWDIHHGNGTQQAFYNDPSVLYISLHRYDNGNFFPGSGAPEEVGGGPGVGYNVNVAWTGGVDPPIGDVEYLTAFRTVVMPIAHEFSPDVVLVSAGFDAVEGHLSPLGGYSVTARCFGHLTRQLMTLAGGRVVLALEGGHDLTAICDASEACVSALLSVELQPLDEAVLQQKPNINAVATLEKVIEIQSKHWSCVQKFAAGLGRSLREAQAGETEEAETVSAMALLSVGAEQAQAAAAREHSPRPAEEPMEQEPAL
# Chain of Protein deacetylase HDAC6 (Q9UBN7 whole entry): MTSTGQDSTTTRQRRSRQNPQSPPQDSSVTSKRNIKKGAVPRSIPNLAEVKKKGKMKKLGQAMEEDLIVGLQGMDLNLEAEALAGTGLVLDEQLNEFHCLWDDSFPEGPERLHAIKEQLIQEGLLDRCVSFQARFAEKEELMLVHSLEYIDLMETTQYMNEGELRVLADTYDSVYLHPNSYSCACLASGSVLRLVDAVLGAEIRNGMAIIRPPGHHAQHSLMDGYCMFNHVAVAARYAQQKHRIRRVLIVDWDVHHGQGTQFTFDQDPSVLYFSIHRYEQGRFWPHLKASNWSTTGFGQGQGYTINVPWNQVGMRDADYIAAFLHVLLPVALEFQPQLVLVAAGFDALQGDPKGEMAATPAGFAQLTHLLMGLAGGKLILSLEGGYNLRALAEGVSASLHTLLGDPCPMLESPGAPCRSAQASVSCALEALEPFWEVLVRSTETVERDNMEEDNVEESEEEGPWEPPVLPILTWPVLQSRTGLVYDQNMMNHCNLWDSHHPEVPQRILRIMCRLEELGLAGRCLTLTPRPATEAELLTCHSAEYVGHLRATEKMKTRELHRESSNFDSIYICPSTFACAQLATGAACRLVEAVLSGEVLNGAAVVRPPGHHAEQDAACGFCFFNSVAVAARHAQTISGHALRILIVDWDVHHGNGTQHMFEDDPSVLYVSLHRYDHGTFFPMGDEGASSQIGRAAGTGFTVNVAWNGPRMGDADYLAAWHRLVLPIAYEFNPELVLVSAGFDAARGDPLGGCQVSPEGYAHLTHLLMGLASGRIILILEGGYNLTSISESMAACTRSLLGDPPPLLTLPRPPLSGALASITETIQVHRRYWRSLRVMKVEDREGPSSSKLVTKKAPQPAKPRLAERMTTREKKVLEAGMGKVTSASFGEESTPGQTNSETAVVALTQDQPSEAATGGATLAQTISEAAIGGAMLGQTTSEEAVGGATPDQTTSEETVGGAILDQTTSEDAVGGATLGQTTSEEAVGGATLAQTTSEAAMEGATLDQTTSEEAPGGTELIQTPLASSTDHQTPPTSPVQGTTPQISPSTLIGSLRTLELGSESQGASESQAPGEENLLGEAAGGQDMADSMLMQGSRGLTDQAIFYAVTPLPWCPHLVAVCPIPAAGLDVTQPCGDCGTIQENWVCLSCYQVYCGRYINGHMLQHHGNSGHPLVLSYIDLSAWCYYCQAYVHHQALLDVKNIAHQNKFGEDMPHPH
# Chain of Histone deacetylase 4 (P56524 whole entry): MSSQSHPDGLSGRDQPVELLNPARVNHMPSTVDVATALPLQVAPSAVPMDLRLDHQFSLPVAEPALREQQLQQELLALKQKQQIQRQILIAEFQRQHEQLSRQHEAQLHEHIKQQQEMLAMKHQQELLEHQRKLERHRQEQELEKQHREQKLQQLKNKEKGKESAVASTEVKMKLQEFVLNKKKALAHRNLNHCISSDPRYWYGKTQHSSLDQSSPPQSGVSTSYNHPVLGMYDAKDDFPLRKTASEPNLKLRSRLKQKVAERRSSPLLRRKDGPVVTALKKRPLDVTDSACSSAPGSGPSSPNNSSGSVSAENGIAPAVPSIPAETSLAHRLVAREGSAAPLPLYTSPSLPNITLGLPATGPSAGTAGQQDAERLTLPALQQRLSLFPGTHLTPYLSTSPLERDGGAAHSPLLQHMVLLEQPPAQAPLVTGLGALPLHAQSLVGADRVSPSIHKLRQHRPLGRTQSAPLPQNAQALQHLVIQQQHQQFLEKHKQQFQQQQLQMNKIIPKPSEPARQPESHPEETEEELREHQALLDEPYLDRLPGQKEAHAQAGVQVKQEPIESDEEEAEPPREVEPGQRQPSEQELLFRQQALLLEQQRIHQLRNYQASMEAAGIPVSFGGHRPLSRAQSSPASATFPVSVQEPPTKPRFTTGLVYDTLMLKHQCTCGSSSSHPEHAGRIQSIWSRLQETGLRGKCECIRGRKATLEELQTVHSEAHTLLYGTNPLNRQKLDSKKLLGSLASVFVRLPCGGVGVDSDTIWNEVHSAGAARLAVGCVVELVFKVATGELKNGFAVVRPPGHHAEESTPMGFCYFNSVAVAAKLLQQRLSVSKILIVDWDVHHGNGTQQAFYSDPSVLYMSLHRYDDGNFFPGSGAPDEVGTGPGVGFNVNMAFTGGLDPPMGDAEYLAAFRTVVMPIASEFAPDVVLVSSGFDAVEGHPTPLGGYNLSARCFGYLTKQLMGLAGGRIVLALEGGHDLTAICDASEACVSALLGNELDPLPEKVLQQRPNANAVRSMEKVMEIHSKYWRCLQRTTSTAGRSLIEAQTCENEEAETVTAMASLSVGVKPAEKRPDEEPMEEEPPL
structure (smiles),measurement,setting,value
CN(C)CCOc1ccc(-c2cc(=O)c3c(O)cc(OCCCCCC(=O)NO)cc3o2)cc1.Cl,Activity,MDA-MB-231 [1],10.21%
same,Activity,[2],Non-Toxic
same,IC50,T47D,1.53 µM
same,inhibition,Histone deacetylase 9,26%
same,Activity,[3],Toxic
same,IC50,Histone deacetylase 5,> 10 µM
same,Activity,MDA-MB-231 [4],27.89%
same,Activity,4T1 [5],30.99%
same,Activity,MDA-MB-231 [6],0.06%
same,IC50,SUM-159-PT,0.277 µM
same,IC50,PC-3,1.92 µM
same,Activity,[7],Non-Toxic
same,half-life,[8],1.42 h
same,Activity,MDA-MB-231 [9],8.09%
same,viability at 5 µM,MDA-MB-231 [10],17.2%
same,Ratio IC50,MCF7,2
same,IC50,MDA-MB-468,3.4 µM
same,IC50,[11],0.0255 µM
same,Activity,MDA-MB-231 [12],Dose-dependent effect
same,Activity,4T1 [13],25.58%
same,Activity,4T1 [14],11.51%
same,IC50,Histone deacetylase 4,0.307 µM
same,viability at 1 µM,MDA-MB-231 [15],64.8%
same,Activity,4T1 [16],Dose-dependent effect
same,Activity,4T1 [17],1.8%
same,IC50,Histone deacetylase 1,0.036 µM
same,Activity,MDA-MB-231 [18],0.13%
same,Activity,[19],Non-Toxic
same,Activity,[20],Non-Toxic
same,Activity,MDA-MB-231 [21],27.2%
same,TGI,MDA-MB-231 [22],Active
same,IC50,NCI-H460,2.73 µM
same,MRT,[23],1.1 h
same,Cmax,[24],2180 ng/mL
